According to patent publication US9655828B2, “Glucuronolactone derivatives as self-tanning substances” (Merck Patent GmbH, priority 2013, dated 2017):

Legend:
[1] = Liquid skin model (reaction with L-lysine, L*a*b* values); details: for L* / a* / b*: 1 mmol substance + 1 mmol L-lysine in 100 ml phosphate-buffered water (pH=7)/ethylene glycol 6:94; for L* / a* / b* / L values compared with erythrulose or glucuronolactone: after 24 hours; for hue achieved: conclusion from a values
Procedure: The mixture is subsequently made up to the mark with a mixture of 6 ml of phosphate-buffered water (pH=7) and 94 ml of ethylene glycol. The reaction is observed with vigorous stirring, and the L*a*b* values are determined after 24 hours.

[2] = Colouring test on merino wool balls; details: 1 mmol substance in 100 ml buffer (pH 7)/ethylene glycol 6:94, RT, 24 h, then washed and dried; compared with untreated sample
Procedure: In each case, 1 mmol of the substance to be tested are weighed out into a 100 ml conical flask with ground-glass joint:
A merino wool ball with the size of a grape and a magnetic stirrer are then added to each conical flask.
A mixture of 6% by vol. of buffer (ph7) and 94% by vol. of ethylene glycol is then prepared, 100 ml of this mixture are added to each conical flask and stirred at RT for 24 h.
After 24 h, the wool balls are washed firstly with water, then with warm washing-powder solution and again with water and dried.
This colouring result can also be applied to hair, since merino wool, like hair, is built up from proteins (keratins) and the outermost layer is in each case the cuticle.

[3] = test system: histological explants from lower abdomen tissue; assay: Ex-vivo study: chromametric measurement of skin explants (ITA); parameters: species or system human; details: 4% substance, 30 μl applied daily for 2 h
Procedure: 24 histological explants having an average diameter of 10 mm are prepared from the lower abdomen tissue of a person. The pieces of tissue are kept in BEM medium (BIO-EC's Explants Medium) at 37° C. in a humid atmosphere comprising 5% of CO2.
The tissue is divided into 8 batches of 3 explants each: • A negative control (untreated sample, treated only with the vehicle Mygliol)→E • A positive control (4% dihydroxyacetone)→R1 • A positive control (4% erythrulose)→R2 • Glucuronolactone (4%)→P1 • Compound of the formula (Ig) (4%)→P2 • Compound of the formula (Ia) (4%)→P3
30 μl of the substance solutions are applied on 10 consecutive days using a round filter paper and left to act for 2 h. On days 1, 3 and 7, the explants are measured chromametrically.
The colour measurements are carried out using a Minolta CR-300 Chroma-meter, and the L, a and b values are read off correspondingly on the instrument.
In 1931, a test series was carried out by the CIE (Commision Internationale de L'Eclairage), where the “2-degree standard observer” was defined. A colour area is present here which is viewed at a viewing angle of 2 degrees. This viewing angle is used as standard in the chromametric measurement. • Irradiation source D65, corresponding to daylight • Region of the measurement: 3 mm • Parameters used: L*a*b*
The sample is placed on the bearing rail with the epidermis facing downwards. The irradiation is carried out from the underside through the area indicated (3 mm).
In the colorimetric determinations <<L a b>>, the L value determines the contrast of the skin. If the L value drops, the skin appears darker.
ITA is defined as arctang[(L-50)/b]. If the ITA index increases, the skin appears paler.

Row | SMILES | L* [1] | a* [1] | b* [1] | L values compared with erythrulose or glucuronolactone ([1]; in words) | coloration of wool samples [2] | hue achieved ([1]; in words) | Day 1 (ITA value) [3] [%] | Day 3 (ITA value) [3] [%] | Day 7 (ITA value) [3] [%] | colour effect compared with erythrulose or glucuronolactone ([1]; identical concentration in the test formulation, in words)
1 | CC(=O)OC1C(=O)OC2C3OC(C)(C)OC3OC12 (centres unmarked) [Compound (Io), 2,2-Dimethyl-5-oxohexahydrofuro[2′,3′:4,5]furo[2,3-d]-1,3-dioxol-6-yl acetate] | 87.51 | 2.41 | 92.10 | lower L values than erythrulose or glucuronolactone | pale-yellow coloration |  |  |  |  | 
2 | COc1ccc(/C=C/C(=O)OC2C(=O)OC3C4OC(C)(C)OC4OC23)cc1 (centres unmarked) [Compound (Ia), 2,2-Dimethyl-5-oxohexahydrofuro[2′,3′:4,5]furo[2,3-d]-1,3-dioxol-6-yl(E)-3-(4-methoxyphenyl)acrylate] | 66.34 | 34.88 | 105.16 | lower L values than erythrulose or glucuronolactone | orange-yellow coloration | shifted more towards red | −6 | −5 | −10 | 
3 | CC1(C)OC2OC3C(OC(=O)c4ccccc4)C(=O)OC3C2O1 (centres unmarked) [Compound (Ig)] | 64.09 | 36.87 | 103.8 | lower L values than erythrulose or glucuronolactone | yellow coloration | shifted more towards red |  |  |  | 
4 | O=C(CO)CO [DHA, 1,3-dihydroxyacetone] | 34.95 | 24.91 | 57.45 |  | no coloration |  | −3 | 0 | −1 | 
5 | O=C(CO)[C@H](O)CO [Erythrulose] | 93.50 | −4.40 | 32.66 |  |  |  | 4 | −4 | 4 | 
6 | O=C[C@H](O)[C@H]1OC(=O)[C@@H](O)[C@H]1O [Glucuronolactone] | 94.30 | −6.94 | 38.68 |  | very pale-yellow coloration |  | 10 | 4 | −2 | comparable colour effect to erythrulose
